Results from patent US20230165978A1, “Composition and A Method For Diagnosing And Treating Bacterial Infection” (Hong Kong Centre for Cerebro-Cardiovascular Health …, priority 2021, published 2023).
Read-outs that look alike come from different tables or passages of the source.

Legend:
UMUC-3 cell lines = assay: Drug treatments of cancer cell clusters in 3D model with bacteria outside tissue; cell viability test (Hoechst/Calcein-AM); format: cell-based; conditions: Homo sapiens, UMUC3, 24 h; for IC50: 3D model with bacteria outside tissue, 24 hrs of incubation, read-out: IC50 of doxorubicin for cancer cells
Method: 70% (v/v) ethanol (EtOH; UNI-CHEM) was added to channels to sterilize the platform and remove air bubbles. 1× phosphate-buffered saline (PBS; Gibco, #10010049, USA) was used to remove residual EtOH, and the microwell layer was then coated with 50 μL of 2.5% bovine serum albumin (v/v) (BSA) (Sigma-Aldrich, #A9418-5G, Germany) to prevent cell adhesion to the channels. The capacity of each channel was 150 μL. UMUC-3 cell clusters in the microchannels could be stained in situ with Hoechst dye (Invitrogen, #H1399, USA) for 30 min to visualize cell nuclei or biofilm. Imaging and downstream analysis were carried out in situ after 1 h, 9 h, and 24 h of infection. UMUC-3 cell clusters without bacteria were used as negative controls. The bacterial suspension was centrifuged for 10,000 rpm. LB supernatant was removed and replaced with antibiotic-free MEM a (10% supplemented with FBS) at the required multiplicity of infection (MOI) rates (500:1 or 1:1). Control groups corresponding to 0 h time points were obtained before the introduction of bacteria.
Nuclear dye Hoechst (blue) and Calcein-AM (green) Invitrogen, #C3100MP, USA) were added to the channels at a final concentration of 20 μM. Clusters were imaged after 30 min incubation at 37° C. Using ImageJ for analysis. We enumerated only cancer cells within the area range of 25-250 μm^2 and circularity 0.3-1.0 to ensure that smaller bacteria were excluded from the count.
UMUC-3 cells were seeded into a PIEB device at 35×10^3 cells/channel concentration and cultured at 37° C. overnight. Then UPEC was suspended in PBS and added into each channel at the MOI of 1:1. Then the bacteria and cells were incubated at 37° C. for 1 h in the device. TBPP was added into the channel and followed by light treatment for 30 mins. The medium was replaced by fresh RPMI with DOX (Sigma-Aldrich, #D1515-10MG, 25316-40-9, China). After 24 h incubation, cells were dyed with Hoechst and Calcein AM for imaging.

[1] = ROS generation test with DCFH-DA under white light; conditions: photosensitizer 10 μM, DCFH-DA 40 μM
Method: Dichlorodihydrofluorescein diacetate (DCFH-DA, Sigma-Aldrich #D6665-5G, 76-54-0, China) was used as the ROS indicator. 40 μL of DCFH-DA stock solution (1 mM) was added into 2 mL of different photosensitizers suspension (10 μM) including TBPPs and chlorin e6 (Sigma-Aldrich #COM448659756-100MG, QC-6466, USA). Then white light ([…]) was used to irradiate, and the emission of DCFD-DA at 525 nm was recorded at various irradiation times.

UPEC = assay: Fluorescent imaging of bacteria by TBPP; format: cell-based, uropathogenic E. coli (UPEC) strain UTI89
Method: A single colony of UPEC on solid culture medium was transferred to 5 mL of Luria-Bertani (LB) medium and incubated at 37° C. for overnight. After reaching the logarithmic phase, bacteria were harvested by centrifuging at 10000 g for 3 min. After removing the supernatant, bacteria were diluted in ABTGC (ABT minimal medium supplemented with […]) to 1×10^5/mL. 300 μL of bacteria solution were added to the culture dish. Then, 300 μL dye solution in saline at appropriate concentration was added into the culture dish for 1 h and directly imaged by Leica TCS SP8 MP confocal microscope (Germany).

[2] = tested on: human bladder carcinoma cell line (UMUC-3); assay: Cancer cell staining by TBPP; format: cell-based; conditions: TBPP 1 μM
Method: The human bladder carcinoma cell line UMUC-3 (CRL-1749, ATCC) were cultured in modified Minimum Essential Medium Alpha (MEM a; Gibco, #12561049, USA) supplemented with 10% (v/v) fetal bovine serum (FBS; Gibco, #10270106, USA) and 1% (v/v) penicillin-streptomycin (Gibco, #15140122, USA) at 37° C. with 5% CO2 in a humidified environment. Cells were cultured in sterile T25 or T75 flasks (Jet BIOFIL, China), with growth media replaced every 48 h. Cultures were passaged at 80% confluence.
[…] of TBPP and 10 μM of Calcein-AM were added to the channels. Clusters were then imaged after 60 min incubation at 37° C. Z-stack were recorded via confocal microscope.

[3] = Photophysical properties (absorption and photoluminescence spectra); format: physicochemical
Method: All chemicals and reagents were commercially available and used as received without further purification. ^1H and ^13C NMR spectra were measured on a Bruker ARX 400 NMR spectrometer using CDCl3 and DMSO-d6 as solvents, and tetramethylsilane (TMS; 6=0 ppm) was chosen as the internal reference. High-resolution mass spectra (HRMS) were obtained on a Finnigan MAT TSQ 7000 mass spectrometer system operated in a matrix-assisted laser desorption and ionization-time-of-flight (MALDI-TOF) mode. Absorption spectra were measured on a Milton Roy Spectronic 3000 array spectrophotometer. Steady-state photoluminescence (PL) spectra were measured on a PerkinElmer spectrofluorometer LS 55.

Row | Compound | viability at 5 µM (UMUC-3 cell lines; read-out: viability of cancer cells) [%] | ROS generation (change of DCFH-DA fluorescence I/I0 with irradiation time) [1] | fluorescent signal of UPEC biofilm (UPEC; TBPP 1 μM, biofilm compared with planktonic bacteria) | NIR fluorescent signal on UPEC (monolayer model) (UPEC; TBPP 10 μM, 1 h to 24 h) | fluorescence in cancer cell staining [2] | Stokes shift (Δv) [3] [nm] | absorption maximum ([3]; in DMSO, 10 μM) [nm] | emission maximum ([3]; in DMSO, 10 μM) [nm] | IC50 (UMUC-3 cell lines; doxorubicin alone) [µM] | IC50 (UMUC-3 cell lines; doxorubicin combined with TBPP) [µM]
1 | C[N+](C)(C)CCC[n+]1ccc(-c2ccc(-c3ccc(N(c4ccccc4)c4ccccc4)cc3)c3nsnc23)cc1.[Br-].[Br-] [TBPP, 4-(7-(4-(diphenylamino)phenyl)benzo[c][1,2,5]thiadiazol-4-yl)-1-(3-(trimethylammonio)propyl)pyridin-1-ium bromide] | ~60 | much greater change than commercial photosensitizer, Ce6 | much higher signal than the planktonic bacteria | targeting ability to UPEC | negligible fluorescence | 198 | 492 | 690 |  | 
2 | COc1cccc2c1C(=O)c1c(O)c3c(c(O)c1C2=O)C[C@@](O)(C(=O)CO)C[C@@H]3O[C@H]1C[C@H](N)[C@H](O)[C@H](C)O1 [doxorubicin] |  |  |  |  |  |  |  |  | 8 | 5
